From US11230555B2, “Bicyclic RORγ modulators” (Escalier Biosciences B.V., priority 2018, dated 2022)

Biological target: T1, RORγt (Homo sapiens, UniProt P51449)
T1 construct: purchased reporter-cell kit
T1 sequence (P51449 269-508 limits assumed): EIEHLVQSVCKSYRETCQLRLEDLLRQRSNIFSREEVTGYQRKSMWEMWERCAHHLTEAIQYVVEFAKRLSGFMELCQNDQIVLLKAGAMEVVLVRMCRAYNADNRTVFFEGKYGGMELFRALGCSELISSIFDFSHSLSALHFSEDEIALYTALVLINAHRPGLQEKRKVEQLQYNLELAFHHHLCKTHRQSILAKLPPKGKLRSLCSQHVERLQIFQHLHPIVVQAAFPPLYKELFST
Assay: Gal4 ligand binding assay (RORγt Gal fusion reporter assay)
Type: cell-based
Conditions: inverse agonists, luciferase reporter, 24h
Procedure: Compounds of the present invention were tested in a human RORγ ligand binding assay using a commercially available cell based ligand binding reporter assay in 96-well format (Cat #IB04001, INDIGO Biosciences, State College, Pa.). The N-terminal DNA binding domains (DBD) of the native RORγ and RORγt receptors have been substituted with that of the yeast GAL4-DBD and stably transfected in […] cells that also stably express luciferase under the regulation by upstream activation sequence of yeast Gal4. These cells constitutively express high level RORγ activity due to binding of endogenous co-factors. Both agonist and inverse agonist activity can be detected. The assay was performed according to kit manufacturer's instructions as follows. 10 mM compound stocks were diluted serially 1:3 with DMSO and further diluted with provided media to generate 10 titration points from 60 μM to 3 nM. These treatment conditions were added to the plates as 2× media in 100 μL volume. Each plate includes a positive control with 10 titration points as well as 6negative control wells with vehicle only, with final DMSO concentration of 0.2%. RORγ reporter cells were rapidly thawed and added to the plates in 100 μL volume. The plates were incubated for 24h in a 37° C. humidified 5% CO2incubator. Media was removed before the addition of room temperature luciferous detection substrate. After 5 minute incubation, relative light units (RLUs) were quantified using a plate reading luminometer. Data was normalized to positive control wells with only […]. Before establishing internal controls, ursolic acid was used as control.

Row | Compound | IC50 [nM]
1 | CCc1cc(CN2CC3CCC(C2)N3Cc2ccncc2)ccc1-c1ccc(C(O)(C(F)(F)F)C(F)(F)F)cc1 [Example 53, 2-(2′-ethyl-4′-((8-(pyridin-4-ylmethyl)-3,8-diazabicyclo[3.2.1]octan-3-yl)methyl)-[1,1′-biphenyl]-4-yl)-1,1,1,3,3,3-hexafluoropropan-2-ol] | < 50
2 | CS(=O)(=O)N1C2CCC1CN(c1cccc(-c3ccc(C(O)(C(F)(F)F)C(F)(F)F)cc3)c1)C2 [Example 9, 1,1,1,3,3,3-hexafluoro-2-(3′-(8-(methylsulfonyl)-3,8-diazabicyclo[3.2.1]octan-3-yl)-[1,1′-biphenyl]-4-yl)propan-2-ol] | > 250
3 | CCOC(=O)N1C2CCC1CN(Cc1ccc(-c3ccc(C(O)(C(F)(F)F)C(F)(F)F)cc3)c(C)c1)C2 [Example 44, ethyl 3-((4′-(1,1,1,3,3,3-hexafluoro-2-hydroxypropan-2-yl)-2-methyl-[1,1′-biphenyl]-4-yl)methyl)-3,8-diazabicyclo[3.2.1]octane-8-carboxylate] | > 250
4 | Cc1cc(CN2CC3CC2CN3S(C)(=O)=O)ccc1-c1ccc(C(O)(C(F)(F)F)C(F)(F)F)cc1 (stereo not shown) [Example 49, 1,1,1,3,3,3-hexafluoro-2-(2′-methyl-4′-((5-(methylsulfonyl)-2,5-diazabicyclo[2.2.1]heptan-2-yl)methyl)-[1,1′-biphenyl]-4-yl)propan-2-ol] | > 250
5 | CCc1c(-c2ccc(C(O)(C(F)(F)F)C(F)(F)F)cc2C)cc(F)c(CN2CC3CCC(C2)N3S(C)(=O)=O)c1F [Example 28, 2-(2′-ethyl-3′,5′-difluoro-2-methyl-4′-((8-(methylsulfonyl)-3,8-diazabicyclo[3.2.1]octan-3-yl)methyl)-[1,1′-biphenyl]-4-yl)-1,1,1,3,3,3-hexafluoropropan-2-ol] | < 50
6 | CCc1cc(CN2CC3CCC(C2)N3S(C)(=O)=O)cc(F)c1-c1ccc(C(O)(C(F)(F)F)C(F)(F)F)cc1Cl [Example 18, 2-(2-chloro-2′-ethyl-6′-fluoro-4′-((8-(methylsulfonyl)-3,8-diazabicyclo[3.2.1]octan-3-yl)methyl)-[1,1′-biphenyl]-4-yl)-1,1,1,3,3,3-hexafluoropropan-2-ol] | < 50
7 | Cc1cc(CN2CC3CCC(C2)N3Cc2ccnc(O)c2)ccc1-c1ccc(C(O)(C(F)(F)F)C(F)(F)F)cc1 [Example 70, 4-((3-((4′-(1,1,1,3,3,3-hexafluoro-2-hydroxypropan-2-yl)-2-methyl-[1,1′-biphenyl]-4-yl)methyl)-3,8-diazabicyclo[3.2.1]octan-8-yl)methyl)pyridin-2-ol] | > 250
8 | Cc1cc(CN2CC3CCC(C2)N3c2noc(C(C)(C)C)n2)ccc1-c1ccc(C(O)(C(F)(F)F)C(F)(F)F)cc1 [Example 36, 2-(4′-((8-(5-(tert-butyl)-1,2,4-oxadiazol-3-yl)-3,8-diazabicyclo[3.2.1]octan-3-yl)methyl)-2′-methyl-[1,1′-biphenyl]-4-yl)-1,1,1,3,3,3-hexafluoropropan-2-ol] | > 250
9 | CC(=O)N1C2CCC1CN(Cc1ccc(-c3ccc(C(O)(C(F)(F)F)C(F)(F)F)cc3)c(C)c1)C2 [Example 71, 1-(3-((4′-(1,1,1,3,3,3-hexafluoro-2-hydroxypropan-2-yl)-2-methyl-[1,1′-biphenyl]-4-yl)methyl)-3,8-diazabicyclo[3.2.1]octan-8-yl)ethan-1-one] | 50 to 250
10 | CCc1cc(CN2CC3CCC(C2)N3S(C)(=O)=O)ccc1-c1ccc(C(O)(C(F)(F)F)C(F)(F)F)cc1 [Example 52, 2-(2′-ethyl-4′-((8-(methylsulfonyl)-3,8-diazabicyclo[3.2.1]octan-3-yl)methyl)-[1,1′-biphenyl]-4-yl)-1,1,1,3,3,3-hexafluoropropan-2-ol] | < 50
11 | Cc1cc(CN2C3CCC2CN(Cc2ccc(-c4ccc(C(O)(C(F)(F)F)C(F)(F)F)cc4)c(C)c2)C3)ccn1 [Example 66, 1,1,1,3,3,3-hexafluoro-2-(2′-methyl-4′-((8-((2-methylpyridin-4-yl)methyl)-3,8-diazabicyclo[3.2.1]octan-3-yl)methyl)-[1,1′-biphenyl]-4-yl)propan-2-ol] | > 250
12 | CCc1cc(CN2CC3CCC(C2)N3S(C)(=O)=O)cnc1-c1ccc(C(O)(C(F)(F)F)C(F)(F)F)cc1C [Example 33, 2-(4-(3-ethyl-5-((8-(methylsulfonyl)-3,8-diazabicyclo[3.2.1]octan-3-yl)methyl)pyridin-2-yl)-3-methylphenyl)-1,1,1,3,3,3-hexafluoropropan-2-ol] | > 250
13 | CCc1c(-c2ccc(C(O)(C(F)(F)F)C(F)(F)F)cc2Cl)cc(F)c(CN2CC3CCC(C2)N3S(C)(=O)=O)c1F [Example 10, 2-(2-chloro-2′-ethyl-3′,5′-difluoro-4′-((8-(methylsulfonyl)-3,8-diazabicyclo[3.2.1]octan-3-yl)methyl)-[1,1′-biphenyl]-4-yl)-1,1,1,3,3,3-hexafluoropropan-2-ol] | < 50
14 | CCN1C2CCC1CN(Cc1ccc(-c3ccc(C(O)(C(F)(F)F)C(F)(F)F)cc3)c(C)c1)C2 [Example 42, 2-(4′-((8-ethyl-3,8-diazabicyclo[3.2.1]octan-3-yl)methyl)-2′-methyl-[1,1′-biphenyl]-4-yl)-1,1,1,3,3,3-hexafluoropropan-2-ol] | > 250
15 | CCc1c(F)c(CN2CC3CCC(C2)N3S(C)(=O)=O)cc(F)c1-c1ccc(C(O)(C(F)(F)F)C(F)(F)F)cc1Cl [Example 11, 2-(2-chloro-2′-ethyl-3′,6′-difluoro-4′-((8-(methylsulfonyl)-3,8-diazabicyclo[3.2.1]octan-3-yl)methyl)-[1,1′-biphenyl]-4-yl)-1,1,1,3,3,3-hexafluoropropan-2-ol] | < 50
16 | OC(c1ccc(-c2ccc(CN3CC4CCC(C3)N4Cc3ccncc3)cc2Br)cc1)(C(F)(F)F)C(F)(F)F [Example 41, 2-(2′-bromo-4′-((8-(pyridin-4-ylmethyl)-3,8-diazabicyclo[3.2.1]octan-3-yl)methyl)-[1,1′-biphenyl]-4-yl)-1,1,1,3,3,3-hexafluoropropan-2-ol] | < 50
17 | Cc1cc(CN2CC3CCC(C2)N3C(=O)c2ccncc2)ccc1-c1ccc(C(O)(C(F)(F)F)C(F)(F)F)cc1 [Example 75, (3-((4′-(1,1,1,3,3,3-hexafluoro-2-hydroxypropan-2-yl)-2-methyl-[1,1′-biphenyl]-4-yl)methyl)-3,8-diazabicyclo[3.2.1]octan-8-yl)(pyridin-4-yl)methanone] | 50 to 250
18 | OC(c1ccc(-c2ccc(CN3C4CCC3CN(Cc3ccncc3)C4)cc2)cc1)(C(F)(F)F)C(F)(F)F [Example 2, 1,1,1,3,3,3-hexafluoro-2-(4′-((3-(pyridin-4-ylmethyl)-3,8-diazabicyclo[3.2.1]octan-8-yl)methyl)-[1,1′-biphenyl]-4-yl)propan-2-ol] | > 250
19 | CCc1cc(CN2CC3CCC(C2)N3S(C)(=O)=O)ncc1-c1ccc(C(O)(C(F)(F)F)C(F)(F)F)cc1C [Example 3, 2-(4-(4-ethyl-6-((8-(methylsulfonyl)-3,8-diazabicyclo[3.2.1]octan-3-yl)methyl)pyridin-3-yl)-3-methylphenyl)-1,1,1,3,3,3-hexafluoropropan-2-ol] | 50 to 250
20 | Cc1cc(CN2CC3CCC(C2)N3Cc2ccncc2)ccc1-c1ccc(C(O)(C(F)(F)F)C(F)(F)F)cc1 [Example 78, 1,1,1,3,3,3-hexafluoro-2-(2′-methyl-4′-((8-(pyridin-4-ylmethyl)-3,8-diazabicyclo[3.2.1]octan-3-yl)methyl)-[1,1′-biphenyl]-4-yl)propan-2-ol] | < 50
21 | CS(=O)(=O)N1C2CCC1CN(Cc1ccc(-c3ccc(C(O)(C(F)(F)F)C(F)(F)F)cc3)c(Cl)c1)C2 [Example 55, 2-(2′-chloro-4′-((8-(methylsulfonyl)-3,8-diazabicyclo[3.2.1]octan-3-yl)methyl)-[1,1′-biphenyl]-4-yl)-1,1,1,3,3,3-hexafluoropropan-2-ol] | 50 to 250
22 | CCc1nc(CN2CC3CCC(C2)N3S(C)(=O)=O)ccc1-c1ccc(C(O)(C(F)(F)F)C(F)(F)F)cc1C [Example 5, 2-(4-(2-ethyl-6-((8-(methylsulfonyl)-3,8-diazabicyclo[3.2.1]octan-3-yl)methyl)pyridin-3-yl)-3-methylphenyl)-1,1,1,3,3,3-hexafluoropropan-2-ol] | > 250
23 | Cc1cc(CN2CC3CCC2CN3S(C)(=O)=O)ccc1-c1ccc(C(O)(C(F)(F)F)C(F)(F)F)cc1 (stereo not shown) [Example 50, 1,1,1,3,3,3-hexafluoro-2-(2′-methyl-4′-((5-(methylsulfonyl)-2,5-diazabicyclo[2.2.2]octan-2-yl)methyl)-[1,1′-biphenyl]-4-yl)propan-2-ol] | > 250
24 | CC(C)c1cc(CN2CC3CCC(C2)N3S(C)(=O)=O)ccc1-c1ccc(C(O)(C(F)(F)F)C(F)(F)F)cc1F [Example 21] | 50 to 250
25 | CCc1c(-c2ccc(C(O)(C(F)(F)F)C(F)(F)F)cc2F)cc(F)c(CN2CC3CCC(C2)N3S(C)(=O)=O)c1F [Example 13, 2-(2′-ethyl-2,3′,5′-trifluoro-4′-((8-(methylsulfonyl)-3,8-diazabicyclo[3.2.1]octan-3-yl)methyl)-[1,1′-biphenyl]-4-yl)-1,1,1,3,3,3-hexafluoropropan-2-ol] | < 50
